From ChEMBL document CHEMBL5608218, “Identification of 6,9-dihydro-5H-pyrrolo[3,2-h]quinazolines as a new class of F508del-CFTR correctors for the treatment of cystic fibrosis” (Eur J Med Chem, 2024)
Active and inactive are the calls of the source. The calls are words filed in the database; no cut-off is given here.

Tests used:
Format in all cases: cell-based
[1] = tested on: Cystic fibrosis transmembrane conductance regulator (Homo sapiens), P13569 [F508del]; test: (§1) Corrector activity at CFTR F508del mutant (unknown origin) expressed in human CFBE41o- cells co-expressing halide-sensitive yellow fluorescent protein assessed as increase in iodide influx at 1 to 10 uM preincubated with compound for 24 hrs followed by compound washout and measured after 30 mins of stimulation with forskolin/genistein by fluorescence microplate reader; conditions: dose 1-10 µM
Sequence of Cystic fibrosis transmembrane conductance regulator (Homo sapiens), P13569 [F508del] (P13569 as listed by the source): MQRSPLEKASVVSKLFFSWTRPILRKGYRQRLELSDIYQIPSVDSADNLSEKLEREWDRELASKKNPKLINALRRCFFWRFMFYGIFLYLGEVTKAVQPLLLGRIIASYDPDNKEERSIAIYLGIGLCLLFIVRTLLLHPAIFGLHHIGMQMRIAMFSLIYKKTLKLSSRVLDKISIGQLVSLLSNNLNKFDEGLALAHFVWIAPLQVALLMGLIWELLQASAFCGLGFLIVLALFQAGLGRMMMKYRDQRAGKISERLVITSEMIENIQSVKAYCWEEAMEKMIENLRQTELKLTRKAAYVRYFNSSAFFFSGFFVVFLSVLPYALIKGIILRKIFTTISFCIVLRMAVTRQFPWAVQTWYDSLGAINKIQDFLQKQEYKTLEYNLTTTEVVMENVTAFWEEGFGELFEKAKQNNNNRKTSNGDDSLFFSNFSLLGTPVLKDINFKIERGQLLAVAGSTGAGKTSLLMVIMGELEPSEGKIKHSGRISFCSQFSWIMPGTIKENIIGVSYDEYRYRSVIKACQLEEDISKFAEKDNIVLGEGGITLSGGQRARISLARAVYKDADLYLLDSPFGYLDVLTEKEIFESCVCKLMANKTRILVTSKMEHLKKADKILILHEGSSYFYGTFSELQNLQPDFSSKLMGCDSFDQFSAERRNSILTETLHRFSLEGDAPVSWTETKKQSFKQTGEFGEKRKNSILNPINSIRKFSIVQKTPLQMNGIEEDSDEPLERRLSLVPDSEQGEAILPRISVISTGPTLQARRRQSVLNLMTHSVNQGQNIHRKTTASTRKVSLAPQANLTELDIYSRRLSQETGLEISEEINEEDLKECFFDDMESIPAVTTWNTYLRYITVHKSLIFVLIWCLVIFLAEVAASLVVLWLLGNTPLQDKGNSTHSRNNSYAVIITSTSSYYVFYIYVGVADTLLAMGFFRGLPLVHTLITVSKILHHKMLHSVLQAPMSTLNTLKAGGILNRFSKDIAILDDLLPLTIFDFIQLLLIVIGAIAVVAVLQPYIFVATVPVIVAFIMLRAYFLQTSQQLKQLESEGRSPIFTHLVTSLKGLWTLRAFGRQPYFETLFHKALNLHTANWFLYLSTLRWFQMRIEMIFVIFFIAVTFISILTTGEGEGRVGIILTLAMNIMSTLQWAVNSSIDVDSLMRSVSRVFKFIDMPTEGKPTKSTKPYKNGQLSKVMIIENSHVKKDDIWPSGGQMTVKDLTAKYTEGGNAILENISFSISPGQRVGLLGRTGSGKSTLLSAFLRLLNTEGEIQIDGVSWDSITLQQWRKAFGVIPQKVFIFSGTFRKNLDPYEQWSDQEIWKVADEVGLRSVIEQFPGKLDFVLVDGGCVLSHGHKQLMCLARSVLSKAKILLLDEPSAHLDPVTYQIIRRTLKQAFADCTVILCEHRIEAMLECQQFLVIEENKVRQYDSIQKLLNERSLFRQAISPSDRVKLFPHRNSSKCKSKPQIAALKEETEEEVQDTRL

[2] = target: T1, Cystic fibrosis transmembrane conductance regulator (Homo sapiens, UniProt P13569, F508DEL); test: as §1, with “influx” for “influx at 1 to 10 uM”, “hrs in presence of VX-809” for “hrs”
T1 sequence (P13569 as listed by the source): as above

[3] = tested on: Cystic fibrosis transmembrane conductance regulator (Homo sapiens), P13569 [F508del]; test: as §1, with “by measuring fold change” for “at 1 to 10 uM”, “hrs in presence of VX-809” for “hrs”, “reader relative to VX-809 alone” for “reader”; conditions: filed as activator
[4] = target: T1, Cystic fibrosis transmembrane conductance regulator; test: as §1, with “influx” for “influx at 1 to 10 uM”
[5] = tested on: Cystic fibrosis transmembrane conductance regulator (Homo sapiens), P13569 [F508del]; test: as §1, with “at” for “at 1 to”, “hrs in presence of VX-445” for “hrs”
[6] = tested on: Cystic fibrosis transmembrane conductance regulator (Homo sapiens), P13569 [F508del]; test: as §1, with “at” for “at 1 to”, “hrs in presence of corr-4a” for “hrs”; conditions: filed as activator
[7] = tested on: Cystic fibrosis transmembrane conductance regulator (Homo sapiens), P13569 [F508del]; test: as §1, with “hrs in presence of VX-809” for “hrs”; conditions: filed as activator, dose 1-10 µM

With `CCOC(=O)c1cc2c(n1Cc1ccc(Br)cc1)-c1nc(NS(=O)(=O)c3ccccc3)ncc1CC2` the Activity [1] was “inactive”.

`CCOC(=O)c1c(Br)c2c(n1Cc1ccc(F)cc1)-c1nc(NS(=O)(=O)c3ccccc3)ncc1CC2` was tested, and the Activity [1] was “inactive”.

`CCOC(=O)c1c(Br)c2c(n1Cc1cccc(C)c1)-c1[nH]c(=O)c(S(=O)(=O)c3ccccc3)cc1CC2` was tested, and the EC50 [2] was 450 nM, the fold change (FC) [3] was 2.4 and the EC50 [4] was 750 nM. The Activity [5] was “inactive” and the Activity [6] was “Active”.

For `CCOC(=O)c1cc2c(n1Cc1cccc(Br)c1)-c1nc(NS(=O)(=O)c3ccccc3)ncc1CC2`, the Activity [1] was “inactive”.

With `CCOC(=O)c1cc2c(n1CC1CC1)-c1nc(NS(=O)(=O)c3ccccc3)ncc1CC2` the Activity [1] was “inactive”.

For `CCOC(=O)c1c(Br)c2c(n1Cc1cccc(C)c1)-c1nc(NS(=O)(=O)c3ccccc3)ncc1CC2`, the Activity [7] was “Active”.

With `CCOC(=O)c1c(Br)c2c(n1Cc1cccc(Br)c1)-c1nc(NS(=O)(=O)c3ccccc3)ncc1CC2` the EC50 [2] was 2120 nM, the fold change (FC) [3] was 2.3 and the Activity ([1]; filed as activator) was “Active”. The Activity [7] was “Active”, the EC50 [4] was 3080 nM and the Activity [5] was “inactive”. The Activity [6] was “Active”.

`Cc1cccc(Cn2c(C(=O)OC(C)C)c(Br)c3c2-c2nc(NS(=O)(=O)c4ccccc4)ncc2CC3)c1` was tested, and the Activity [7] was “Active”.

For `CCOC(=O)c1c(Br)c2c(n1Cc1ccc(Br)cc1)-c1nc(NS(=O)(=O)c3ccccc3)ncc1CC2`, the Activity [1] was “inactive” and the Activity [7] was “Active”.

`CCOC(=O)c1c(Cl)c2c(n1Cc1cccc(C)c1)-c1nc(NS(=O)(=O)c3ccccc3)ncc1CC2` was tested, and the EC50 [2] was 1880 nM, the fold change (FC) [3] was 2.1 and the Activity [7] was “Active”. The EC50 [4] was 3140 nM, the Activity [5] was “inactive” and the Activity [6] was “Active”.

For `CCOC(=O)c1c(Br)c2c(n1Cc1ccc(C)cc1)-c1nc(NS(=O)(=O)c3ccccc3)ncc1CC2`, the Activity [1] was “inactive”.

In the case of `CCOC(=O)c1c(Br)c2c(n1Cc1ccc(C)c(C)c1)-c1nc(NS(=O)(=O)c3ccccc3)ncc1CC2`, the Activity ([1]; filed as activator) is reported as “Active” and the Activity [7] is reported as “Active”.

For `CCOC(=O)c1cc2c(n1Cc1cccc(C)c1)-c1nc(NS(=O)(=O)c3ccccc3)ncc1CC2`, the Activity [7] was “Active”.

With `CCOC(=O)c1c(Br)c2c(n1Cc1ccc(F)c(Br)c1)-c1nc(NS(=O)(=O)c3ccccc3)ncc1CC2` the Activity ([1]; filed as activator) was “Active” and the Activity [7] was “Active”.

For `CCOC(=O)c1cc2c(n1Cc1ccc(F)c(Br)c1)-c1nc(NS(=O)(=O)c3ccccc3)ncc1CC2`, the Activity ([1]; filed as activator) was “Active” and the Activity [7] was “Active”.

For `CCOC(=O)c1cc2c(n1Cc1ccc(C)cc1)-c1nc(NS(=O)(=O)c3ccccc3)ncc1CC2`, the Activity [1] was “inactive”.

`CCOC(=O)c1c(Br)c2c(n1CC1CC1)-c1nc(NS(=O)(=O)c3ccccc3)ncc1CC2` was tested, and the Activity [1] was “inactive” and the Activity [7] was “Active”.
